Source: US12622917B2, “High-activity Wnt pathway inhibitor compound” (ADLAI NORTYE BIOPHARMA CO., LTD., priority 2020, dated 2026)

Tests used:
[1] = test system: NCI-H929; assay: Proliferation inhibition, NCI-H929 cell line; assay type: cell-based, human; conditions: Homo sapiens; NCI-H929 cells, 96 hours culture, cell viability detection; read-out: Antiproliferative IC50 NCI-H929
Description: (§1) The cell lines used in the test are NCI-H929 and HepG2 cell lines whose Wnt pathway is continuously activated and whose proliferation is Wnt pathway-dependent; the inhibitory effect of the compound of the present invention on Wnt-dependent proliferation is judged.
(§2) Treat the NCI-H929 and HepG2 cell lines cultured in their respective mediums in the logarithmic growth phase, collect the cells and prepare a uniform cell suspension of known concentration, and then add the cell suspension to the 96-well cell culture plate solution so that each well contains 4000 cells. Put it into a […] incubator and incubate at 37° C. for 20-24 h. On the second day, the fully dissolved, 3-fold serially diluted compound was added to each cell culture well, so that the final maximum concentration in the cell culture well was 20 uM, and the culture was continued for 96 hours. In this test, Promega's cell viability detection test is used for detection. The more the cells proliferate, the stronger the final signal intensity will be. The detection instrument is SpectraMax, full wavelength mode. The wells only added with DMSO were used as positive control wells, and the wells that were not inoculated with cells were used as negative control wells. […] The IC50 value of cell proliferation inhibition was used to evaluate the inhibitory effect of the compound on the Wnt pathway and the toxic effect on normal cells (Table 3).

[2] = test system: DU4475; assay: Proliferation inhibition, Wnt mutant cell line DU4475; assay type: cell-based; conditions: Homo sapiens, DU-4475; DU4475, Wnt pathway-dependent, 96 hours; read-out: Antiproliferative IC50 DU4475
Description: The cell lines used in the experiment are Colo205 and DU4475 cell lines whose Wnt pathway is continuously activated and whose proliferation is Wnt pathway-dependent; while the BELA and RKO cell lines, whose Wnt pathway is not activated under normal circumstances and the proliferation is independent of Wnt pathway, as control cell lines. It is Judged that the inhibitory effect of the compound of the present invention on Wnt-dependent proliferation is not caused by other non-specific toxicity.
Treat the Colo205, Du4475, HELA and RKO cell lines cultured in their respective mediums in the logarithmic growth phase, collect the cells and prepare a uniform cell suspension of known concentration, and then add it to the 96-well cell culture plate Cell suspension, so that each well contains 1000 cells. Put it into a 5% CO2 incubator and incubate at 37° C. for 20-24 h. On the second day, the fully dissolved, 3-fold serially diluted compound was added to each cell culture well, so that the final maximum concentration in the cell culture well was 20 uM, and the culture was continued for 96 hours. In this test, Promega's cell viability detection test is used for detection. The more the cells proliferate, the stronger the final signal intensity will be. The detection instrument is SpectraMax, full wavelength mode. The wells only added with DMSO were used as positive control wells, and the wells that were not inoculated with cells were used as negative control wells. […] The IC50 value of cell proliferation inhibition was used to evaluate the inhibitory effect of the compound on the Wnt pathway and the toxic effect on normal cells (Table 2).

[3] = test system: RKO; assay: Proliferation inhibition, non-Wnt mutant control cell line RKO; assay type: cell-based; conditions: Homo sapiens, Wnt-independent control cell line, 96 hours, read-out: Antiproliferative IC50 RKO
How it was run: (§3)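 Read-out is a Promega cell viability signal that rises with proliferation, taken after 96 hours of compound treatment. Compound was dosed as a 3-fold dilution series up to 20 uM final, one day after plating 1000 log-phase cells per well; IC50 is calculated against DMSO and no-cell controls.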

[4] = test system: HepG2; assay: Proliferation inhibition, HepG2 cell line; assay type: cell-based; conditions: Homo sapiens; HepG2 cells, 96 hours culture, cell viability detection; read-out: Antiproliferative IC50 HepG2
Description: as §1, §2

[5] = test system: Colo205; assay: Proliferation inhibition, Wnt mutant cell line Colo205; assay type: cell-based; conditions: Homo sapiens, COLO 205; Colo205, Wnt pathway-dependent, 96 hours; read-out: Antiproliferative IC50 Colo205
How it was run: as §3

[6] = test system: Colo205-LUC-TCF/LEF M1 reporter cell line (Wnt pathway); assay: Colo205-LUC-TCF/LEF M1 reporter gene (luciferase) inhibition; assay type: cell-based; conditions: 4 hours incubation, luciferase readout
How it was run: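 Luminescent readout of TCF/LEF-regulated luciferase after a 4 h, 37° C compound exposure in a stable Colo205 reporter clone (10,000 cells/well). Serial 3-fold dilutions started at 20 uM; IC50 derived using DMSO-treated cells and no-cell wells as controls.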

| Structure (SMILES) | IC50 [1] | IC50 [2] | IC50 [3] | IC50 [4] | IC50 [5] | IC50 [6] |
| --- | --- | --- | --- | --- | --- | --- |
| CN1c2nc(NCc3ccc(Oc4cnc(C(F)(F)F)nc4)nc3)nc3c2N(CCC3)C(=O)[C@@H]1CF [150 (W301)] | 62 nM | 12 nM | > 10000 nM | 19 nM | 24 nM | 25 nM |
| CN1c2nc(NCc3ccc(Oc4cnc(C(F)(F)F)nc4)nc3)nc3c2N(CCC3)C(=O)[C@@H]1CC(F)(F)F [199 (W319)] | 28 nM | < 0.5 nM | > 10000 nM | 2 nM | 6.9 nM | 9 nM |
| CC[C@H]1C(=O)N2CCCc3nc(NCc4ccc(Cn5ccc(C(F)(F)F)n5)nc4)nc(c32)N1C [146 (W273)] | 87 nM | 18 nM | > 10000 nM | 81 nM | 31 nM | 34 nM |
| [2H]C([2H])([2H])N1c2nc(NCc3ccc(Oc4ccc(C(F)(F)F)nc4)nc3)nc3c2N(CCC3)C(=O)[C@@H]1CC(F)F [163 (W325)] | 31 nM | 4.7 nM | > 10000 nM | 7 nM | 5 nM | 16 nM |
| CN1c2nc(NCc3ccc(Oc4cnc(C(F)(F)F)nc4)nc3)nc3c2N(CCC3)C(=O)[C@@H]1c1ccccc1 [172 (W305)] | 89 nM | 5.8 nM | > 10000 nM | 26 nM | 17.4 nM | 20 nM |
| CN1c2nc(NCc3ccc(Oc4cnc(C(F)(F)F)nc4)nc3)nc3c2N(CCC3)C(=O)C1(C)C [177 (W297)] | 56 nM | 1.2 nM | > 10000 nM | 25 nM | 16.1 nM | 21 nM |
| CC[C@H]1C(=O)N2CCCc3nc(NCc4ccc(Oc5ccc(C(F)(F)F)nc5)nc4)nc(c32)N1C [119 (W255), (S)-5-ethyl-4-methyl-2-(((6-((6-(trifluoromethyl)pyridin-3-yl)oxo)pyridin-3-yl)methyl)amino)-4,5,9,10-tetrahydro-6H,8H-pyrido[3,2,1-de]pteridin-6-one] | 28 nM | 2.3 nM | > 10000 nM | 5.4 nM | 7.5 nM | 7 nM |
| [2H]C([2H])([2H])N1c2nc(NCc3ccc(Oc4cnc(C(F)(F)F)nc4)nc3)nc3c2N(CCC3)C(=O)[C@@H]1CC [162 (W270)] | 22 nM | < 0.5 nM | > 10000 nM | 16 nM | 4.9 nM | 11 nM |
| C[C@H]1C(=O)N2CCCc3nc(NCc4ccc(Oc5cc(C(F)(F)F)nn5C)nc4)nc(c32)N1C [128 (W263), (S)-4,5-dimethyl-2-(((6-((1-methyl-3-(trifluoromethyl)-1H-pyrazol-5-yl)oxo)pyridine-3-yl)methyl)amino)-4,5,9,10-tetrahydro-6H,8H-pyrido[3,2,1-de]pteridin-6-one] | 78 nM | 4.1 nM | > 10000 nM | 27 nM | 18.6 nM | 19 nM |
| C[C@@H](F)[C@H]1C(=O)N2CCCc3nc(NCc4ccc(Oc5ccc(C(F)(F)F)nc5)nc4)nc(c32)N1C [149 (W285)] | 41 nM | 2.9 nM | > 10000 nM | 11 nM | 15 nM | 16 nM |
| CCN1c2nc(NCc3ccc(Oc4cnc(C(F)(F)F)nc4)nc3)nc3c2N(CCC3)C(=O)[C@@H]1C1CC1 [166 (W287)] | 31 nM | 4.8 nM | 4820 nM | 21 nM | 16 nM | 23 nM |
| [2H]C([2H])([2H])N1c2nc(NCc3ccc(Oc4cnc(C(F)(F)F)nc4)nc3)nc3c2N(CCC3)C(=O)[C@@H]1CC(F)F [164 (W326)] | 26 nM | 5 nM | > 10000 nM | 7.5 nM | 5 nM | 26 nM |
| CN1c2nc(NCc3ccc(Oc4ccc(C(F)(F)F)nc4)nc3)nc3c2N(CCC3)C(=O)[C@@H]1c1ccccc1 [127 (W280), (S)-4-methyl-5-phenyl-2-(((6-((6-(trifluoromethyl)pyridin-3-yl)oxo)pyridin-3-yl)methyl)amino)-4,5,9,10-tetrahydro-6H,8H-pyrido[3,2,1-de]pteridin-6-one] | 75 nM | 42 nM | > 10000 nM | 42 nM | 21 nM | 20 nM |
| CN1c2nc(NCc3ccc(Oc4ccc(C(F)(F)F)nc4)nc3)nc3c2N(CCC3)C(=O)C1(C)C [176 (W296)] | 40 nM | 3.8 nM | > 10000 nM | 27 nM | 5.6 nM | 20 nM |
| CN1c2nc(NCc3ccc(Oc4ccc(C(F)(F)F)nc4)nc3)nc3c2N(CCC3)C(=O)[C@@H]1C1CC1 [120 (W265)] | 55 nM | 0.5 nM | > 10000 nM | 18 nM | 7.8 nM | 15 nM |
| CCN1c2nc(NCc3ccc(Oc4ccc(C(F)(F)F)nc4)nc3)nc3c2N(CCC3)C(=O)[C@@H]1C [116 (W249), (S)-4-ethyl-5-methyl-2-(((6-((6-(trifluoromethyl)pyridin-3-yl)oxo)pyridin-3-yl)methyl)amino)-4,5,9,10-tetrahydro-6H,8H-pyrido[3,2,1-de]pteridin-6-one] | 17 nM | 46 nM | > 10000 nM | 69 nM | 36 nM | 30 nM |
| CCN1c2nc(NCc3ccc(Oc4cnc(C(F)(F)F)nc4)nc3)nc3c2N(CCC3)C(=O)[C@@H]1C [168 (W298)] | 68 nM | 11 nM | > 10000 nM | 35 nM | 29 nM | 26 nM |
| CN1c2nc(NCc3ccc(Oc4cnc(C(F)(F)F)nc4)nc3)nc3c2N(CCC3)C(=O)[C@@H]1C(C)(C)F [151 (W332)] | 26 nM | 13 nM | > 10000 nM | 9.8 nM | 11 nM | 50 nM |
| [2H]C([2H])([2H])N1c2nc(NCc3ccc(Oc4cnc(C(F)(F)F)nc4)nc3)nc3c2N(CCC3)C(=O)[C@@H]1COC [178 (W333)] | 60 nM | 13.7 nM | > 10000 nM | 23 nM | 19.2 nM | 39 nM |
| [2H]C([2H])([2H])N1c2nc(NCc3ccc(Oc4cnc(C(F)(F)F)nc4)nc3)nc3c2N(CCC3)C(=O)[C@@H]1C1CC1 [165 (W286)] | 31 nM | 0.6 nM | > 10000 nM | 11 nM | 12 nM | 14 nM |
| C[C@H](F)[C@H]1C(=O)N2CCCc3nc(NCc4ccc(Oc5ccc(C(F)(F)F)nc5)nc4)nc(c32)N1C [126 (W308), (R)-5-((S)-1-fluoroethyl)-4-methyl-2-(((6-((6-(trifluoromethyl)pyridin-3-yl)oxo)pyridine-3-yl)methyl)amino)-4,5,9,10-tetrahydro-6H,8H-pyrido[3,2,1-de]pteridin-6-one] | 39 nM | < 0.5 nM | > 10000 nM | 2.7 nM | 9.1 nM | 10 nM |
